Series [1] is described as follows: Inhibition of trypsin like proteolytic activity of rabbit 26S proteasome. The arrangement: species or system Oryctolagus cuniculus.
Series [2] in a line: Inhibition of chymotrypsin like proteolytic activity of rabbit 26S proteasome. The arrangement: species or system Oryctolagus cuniculus.
The nature of series [3]: Inhibition of PGPH activity of rabbit 26S proteasome. The arrangement: species or system Oryctolagus cuniculus.
Series [4] is described as follows: Dissociation constant, pKa of the compound. It counts as physicochemical.
Series [5] is described as follows: Inhibition of 26S proteasome-mediated chymotrypsin like proteolytic activity in human MCF7 cells. The format is cell-based.
Series [6] is described as follows: Inhibition of calpain.

As for `Cc1cc(NS(=O)(=O)c2ccc(NC3=C(Cl)C(=O)c4ccccc4C3=O)cc2)no1`, the results for the IC50 in series [1], in series [2] and in series [3] were 13.2 µM, 11.2 µM and 16.7 µM, respectively. Also, the pKa (as a rule, the pH at which an ionisable group is half protonated) in series [4] is under 7.91.
Turning to `Cc1nnc(NS(=O)(=O)c2ccc(NC3=C(Cl)C(=O)c4ccccc4C3=O)cc2)s1`, the IC50 (as a rule, the point on the concentration scale where inhibition reaches its midpoint) in series [1] turned out to be 10.7 µM; in series [2] it was 6.4 µM; in series [3], 13.4 µM. Moreover, the pKa in series [4] is under 7.91.
Take `COc1ccc(NS(=O)(=O)c2ccc(NC3=C(Cl)C(=O)c4ccccc4C3=O)cc2OC)cc1`: the IC50 is 23.3 µM in series [1], 15.3 µM in series [2] and 35 µM in series [3].
Consider `O=C1C(Cl)=C(Nc2ccc(S(=O)(=O)Nc3nccs3)cc2)C(=O)c2ccccc21`, for which the IC50 was found to be 8.15 µM in series [1], 3.3 µM in series [2] and 14.3 µM in series [3]. In series [4], the pKa is under 7.91.
As for `O=C1C(Cl)=C(Nc2ccc(S(=O)(=O)Nc3ccccn3)cc2)C(=O)c2ccccc21`, the IC50 in series [1] is 4.5 µM; in series [2], 1 µM; in series [5], 6 µM; in series [3], 4.5 µM; in series [6] it was over 30 µM.
With `Cc1cccc(NS(=O)(=O)c2ccc(NC3=C(Cl)C(=O)c4ccccc4C3=O)cc2)c1`, the results for the IC50 in series [1], in series [2] and in series [3] were 55 µM, 20.8 µM and over 100 µM, respectively.
On the same counts, the results for `COc1cccc(NS(=O)(=O)c2ccc(NC3=C(Cl)C(=O)c4ccccc4C3=O)cc2)c1` are 24.6 µM, 17 µM and 43.5 µM.
On the same counts, the results for `COc1ccccc1NS(=O)(=O)c1ccc(NC2=C(Cl)C(=O)c3ccccc3C2=O)cc1` are 24.7 µM, 20.8 µM and 49.2 µM.
As for `Cc1cc(C)nc(NS(=O)(=O)c2ccc(NC3=C(Cl)C(=O)c4ccccc4C3=O)cc2)n1`, the IC50 in series [1] came out at 20.9 µM; in series [2] it was 19 µM; in series [3], 50.2 µM. Moreover, in series [4], the pKa was under 7.91.
On to `CC(C)C[C@H](NC(=O)[C@H](Cc1ccccc1)NC(=O)c1cnccn1)B(O)O` [BORTEZOMIB], for which the IC50 in series [1] stood at 7 µM; in series [3] it was 0.48 µM.
Take `COc1cc(NC2=C(Cl)C(=O)c3ccccc3C2=O)ccc1S(=O)(=O)Nc1ccccc1C`: the values for the IC50 in series [1], in series [2] and in series [3] were 24.3 µM, 13.7 µM and 30 µM, respectively.
With `O=C1C(Cl)=C(Nc2ccc(S(=O)(=O)Nc3ccnn3-c3ccccc3)cc2)C(=O)c2ccccc21`, the results for the IC50 in series [1], in series [2] and in series [3] were 20.7 µM, 16.3 µM and 25.6 µM, respectively. This compound also showed a pKa in series [4] of under 7.91.
The corresponding values for `Cc1noc(NS(=O)(=O)c2ccc(NC3=C(Cl)C(=O)c4ccccc4C3=O)cc2)c1C` are 9.25 µM, 3.9 µM, 21.2 µM and under 7.91.

(Values after ChEMBL document CHEMBL1212844, “Synthesis and biological evaluation of naphthoquinone analogs as a novel class of proteasome inhibitors” (Bioorg Med Chem, 2010).)
